Source: ChEMBL document CHEMBL5331140, “Discovery of IACS-52825, a Potent and Selective DLK Inhibitor for Treatment of Chemotherapy-Induced Peripheral Neuropathy” (J Med Chem, 2023)
≈ marks a conversion by molar mass, not a printed value.

What was measured:
[1] = Binding affinity to full length human DLK (1 to 859 residues)/NFkappaB DNA binding domain (unknown origin) fusion protein transfected in HEK293 cells assessed as dissociation constant incubated for 1 hr by Kinomescan assay; type: cell-based
[2] = Metabolic stability in mouse liver microsomes assessed as intrinsic clearance at 1 uM in presence of NADPH regenerating system measured for 45 mins by LC-MS/MS analysis; type: ADME, Microsome; settings: read-out: CLH
[3] = Metabolic stability in rat liver microsomes assessed as intrinsic clearance at 1 uM in presence of NADPH regenerating system measured for 45 mins by LC-MS/MS analysis; type: ADME, Microsome; settings: read-out: CLH
[4] = Oral bioavailability in C57BL/6 mouse at 10 mg/kg administered via oral gavage and measured for 24 hrs by LC-MS/MS analysis; type: ADME, organism-based; settings: C57BL/6, mouse, in vivo
[5] = Plasma clearance in C57BL/6 mouse at 0.3 mg/kg, iv administered via tail vein and measured for 24 hrs by LC-MS/MS analysis; type: ADME, organism-based
[6] = Half life in C57BL/6 mouse at 0.3 mg/kg, iv administered via tail vein and measured for 24 hrs by LC-MS/MS analysis; type: ADME, organism-based; settings: in vivo
[7] = Cmax in C57BL/6 mouse at 10 mg/kg administered via oral gavage and measured for 24 hrs by LC-MS/MS analysis; type: ADME, organism-based; design: dose 10 mg/kg, time 24 hrs, route po; settings: in vivo
[8] = AUClast in C57BL/6 mouse at 10 mg/kg administered via oral gavage and measured for 24 hrs by LC-MS/MS analysis; type: ADME, organism-based; design: time 24 hrs, dose 10 mg/kg, route po; settings: in vivo
[9] = Thermodynamic aqueous solubility of compound in FeSSIF at pH 5 incubated for 1 hr under shaking condition by LC-MS/MS analysis; type: physicochemical; settings: read-out: Therm_solubility
[10] = Thermodynamic aqueous solubility of compound in FaSSIF at pH 6.5 incubated for 1 hr under shaking condition by LC-MS/MS analysis; type: physicochemical; settings: read-out: Therm_solubility
[11] = Thermodynamic aqueous solubility of compound in phosphate buffer at pH 7 incubated for 1 hr under shaking condition by LC-MS/MS analysis; type: physicochemical; settings: read-out: Therm_solubility
[12] = Thermodynamic aqueous solubility of compound in FaSSGF at pH 1.6 incubated for 1 hr under shaking condition by LC-MS/MS analysis; type: physicochemical; settings: read-out: Therm_solubility
[13] = Permeability in wild type MDCK cells across apical to basolateral side at 5 uM incubated for 90 mins by LC-MS/MS analysis; type: ADME, cell-based, Canis lupus familiaris; settings: dog, read-out: permeability
[14] = Permeability in wild type MDCK cells across basolateral to apical side at 5 uM incubated for 90 mins by LC-MS/MS analysis; type: ADME, cell-based, Canis lupus familiaris; settings: dog, read-out: permeability
[15] = target: Cytochrome P450 2D6 (Homo sapiens, UniProt P10635); assay: Inhibition of CYP2D6 in human liver microsomes using bufuralol as substrate incubated for 10 mins in presence of NADPH by LC-MS/MS analysis; type: ADME, Microsome
Cytochrome P450 2D6, sequence (P10635 whole entry): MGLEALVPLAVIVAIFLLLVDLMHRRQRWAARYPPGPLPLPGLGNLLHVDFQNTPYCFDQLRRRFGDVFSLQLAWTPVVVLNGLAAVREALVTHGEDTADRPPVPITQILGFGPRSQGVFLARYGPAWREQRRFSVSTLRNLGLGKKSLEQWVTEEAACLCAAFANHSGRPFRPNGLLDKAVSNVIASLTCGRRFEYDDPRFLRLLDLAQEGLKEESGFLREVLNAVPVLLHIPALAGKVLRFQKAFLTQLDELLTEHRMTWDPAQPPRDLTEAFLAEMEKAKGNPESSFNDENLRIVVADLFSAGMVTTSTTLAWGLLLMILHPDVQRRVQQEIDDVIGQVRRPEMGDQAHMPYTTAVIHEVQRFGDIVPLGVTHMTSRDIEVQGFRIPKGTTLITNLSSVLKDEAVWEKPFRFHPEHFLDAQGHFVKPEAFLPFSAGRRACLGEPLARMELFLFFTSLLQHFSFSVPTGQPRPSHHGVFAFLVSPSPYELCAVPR

[16] = target: Cytochrome P450 3A4 (Homo sapiens, UniProt P08684); assay: Inhibition of CYP3A4 in human liver microsomes using testosterone as substrate incubated for 5 mins in presence of NADPH by LC-MS/MS analysis; type: ADME, Microsome
Cytochrome P450 3A4, sequence (P08684 whole entry): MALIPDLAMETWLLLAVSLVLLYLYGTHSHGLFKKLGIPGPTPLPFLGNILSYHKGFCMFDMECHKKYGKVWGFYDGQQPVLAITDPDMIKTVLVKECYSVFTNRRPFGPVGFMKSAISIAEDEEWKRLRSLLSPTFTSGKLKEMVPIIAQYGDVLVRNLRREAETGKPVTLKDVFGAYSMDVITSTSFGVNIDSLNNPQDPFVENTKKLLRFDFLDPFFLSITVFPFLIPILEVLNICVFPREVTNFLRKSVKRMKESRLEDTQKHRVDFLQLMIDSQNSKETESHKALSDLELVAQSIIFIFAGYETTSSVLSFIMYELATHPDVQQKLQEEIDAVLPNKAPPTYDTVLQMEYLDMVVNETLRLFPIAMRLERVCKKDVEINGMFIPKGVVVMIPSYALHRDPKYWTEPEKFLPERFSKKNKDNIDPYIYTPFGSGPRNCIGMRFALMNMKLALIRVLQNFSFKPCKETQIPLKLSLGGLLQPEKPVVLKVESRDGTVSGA

[17] = target: Cytochrome P450 2C19 (Homo sapiens, UniProt P33261); assay: Inhibition of CYP2C19 in human liver microsomes using S-mephenytoin as substrate incubated for 45 mins in presence of NADPH by LC-MS/MS analysis; type: ADME, Microsome
Cytochrome P450 2C19, sequence (P33261 whole entry): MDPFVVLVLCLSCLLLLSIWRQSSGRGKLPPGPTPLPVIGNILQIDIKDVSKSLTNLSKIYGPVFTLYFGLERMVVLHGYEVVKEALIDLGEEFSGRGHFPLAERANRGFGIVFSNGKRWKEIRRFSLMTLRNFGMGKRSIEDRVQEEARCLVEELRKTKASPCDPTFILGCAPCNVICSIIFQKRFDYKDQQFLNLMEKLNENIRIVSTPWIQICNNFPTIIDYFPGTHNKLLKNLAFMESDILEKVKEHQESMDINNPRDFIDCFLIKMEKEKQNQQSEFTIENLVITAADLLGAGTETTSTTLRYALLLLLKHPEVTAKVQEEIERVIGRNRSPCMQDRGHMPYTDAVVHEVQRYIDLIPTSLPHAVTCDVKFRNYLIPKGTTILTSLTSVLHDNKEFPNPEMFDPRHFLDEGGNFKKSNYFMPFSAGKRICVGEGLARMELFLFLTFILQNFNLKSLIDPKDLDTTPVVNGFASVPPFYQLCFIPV

[18] = Metabolic stability in dog liver microsomes assessed as intrinsic clearance at 1 uM in presence of NADPH regenerating system measured for 45 mins by LC-MS/MS analysis; type: ADME, Canis lupus familiaris, Microsome; settings: read-out: CLH
[19] = Metabolic stability in monkey liver microsomes assessed as intrinsic clearance at 1 uM in presence of NADPH regenerating system measured for 45 mins by LC-MS/MS analysis; type: ADME, Macaca mulatta, Microsome; settings: rhesus monkey, read-out: CLH
[20] = Metabolic stability in mouse hepatocytes assessed as intrinsic clearance at 2 uM measured for 120 mins by LC-MS analysis; type: ADME, cell-based, Hepatocyte; settings: read-out: CLH
[21] = Metabolic stability in rat hepatocytes assessed as intrinsic clearance at 2 uM measured for 120 mins by LC-MS analysis; type: ADME, cell-based, Hepatocyte; settings: read-out: CLH
[22] = Metabolic stability in dog hepatocytes assessed as intrinsic clearance at 2 uM measured for 120 mins by LC-MS analysis; type: ADME, cell-based, Canis lupus familiaris, Hepatocyte; settings: read-out: CLH
[23] = Metabolic stability in human hepatocytes assessed as intrinsic clearance at 2 uM measured for 120 mins by LC-MS analysis; type: ADME, cell-based, Hepatocyte; settings: read-out: CLH
[24] = Plasma protein binding in mouse at 5 uM incubated for 5 hrs by rapid equilibrium dialysis method; type: ADME, cell-free; settings: read-out: PPB (converted)
[25] = Plasma protein binding in monkey at 5 uM incubated for 5 hrs by rapid equilibrium dialysis method; type: ADME, cell-free, Macaca mulatta; settings: rhesus monkey, read-out: PPB (converted)
[26] = Plasma protein binding in human at 5 uM incubated for 5 hrs by rapid equilibrium dialysis method; type: ADME, cell-free; settings: read-out: PPB
[27] = Protein binding in mouse brain homogenate incubated for 5 hrs by UPLC-MS/MS analysis; type: ADME, tissue-based; settings: read-out: PB (converted)
[28] = Half life in Sprague-Dawley rat at 3 mg/kg, po or 1 mg/kg, iv measured for 24 hrs by LC-MS/MS analysis; type: ADME, organism-based; settings: in vivo
[29] = Oral bioavailability in Sprague-Dawley rat at 3 mg/kg measured for 24 hrs by LC-MS/MS analysis; type: ADME, organism-based; settings: in vivo
[30] = Volume of distribution at steady state in Beagle dog at 1 mg/kg, po or 0.3 mg/kg, iv measured for 24 hrs by LC-MS/MS analysis; type: ADME, organism-based, Canis lupus familiaris; settings: in vivo
[31] = Cmax in Beagle dog at 1 mg/kg, po or 0.3 mg/kg, iv measured for 24 hrs by LC-MS/MS analysis; type: ADME, organism-based, Canis lupus familiaris; design: time 24 hrs, dose 1 mg/kg, route po; settings: in vivo
[32] = AUClast in Beagle dog at 1 mg/kg, po or 0.3 mg/kg, iv measured for 24 hrs by LC-MS/MS analysis; type: ADME, organism-based, Canis lupus familiaris; design: time 24 hrs, dose 1 mg/kg, route po; settings: in vivo
[33] = Cmax in cynomolgus monkey at 1 mg/kg, po or 0.3 mg/kg, iv measured for 24 hrs by LC-MS/MS analysis; type: ADME, organism-based, Macaca fascicularis; design: dose 1 mg/kg, time 24 hrs, route po; settings: in vivo
[34] = AUClast in cynomolgus monkey at 1 mg/kg, po or 0.3 mg/kg, iv measured for 24 hrs by LC-MS/MS analysis; type: ADME, organism-based, Macaca fascicularis; design: dose 1 mg/kg, time 24 hrs, route po; settings: in vivo
[35] = system: Mus musculus; assay: Antiallodynic activity in po dosed C57BL/6 mouse model of cisplatin-induced mechanical allodynia assessed as increase in paw withdrawal threshold stimulated with cisplatin on day 1 to 5 and 10 to 15 followed by daily administration of compound starting from day 16 and measured for 43 days by von frey test; type: functional, organism-based; settings: dose 3-30 mg/kg, time 28.0 day
[36] = Toxicity in rat measured after 14 days by IND-enabling study; settings: in vivo, 336 h, time 14 day
[37] = Toxicity in monkey assessed as optic nerve swelling measured after 28 days by IND-enabling study; design: species or system Macaca mulatta; settings: rhesus monkey, in vivo, 672 h; time 28 day

## Nc1ncc(-c2cn(C34CC(F)(C3)C4)c([C@@H](O)C(F)(F)F)n2)cc1OC(F)(F)F
[1]
  Kd: 0.0013 µM
[2]
  CLint scaled at 1 µM: 14 mL/min/kg
[3]
  CLint scaled at 1 µM: 16 mL/min/kg
[4]
  bioavailability: > 100%
[5]
  clearance: 4.3 mL/min/kg
[6]
  half-life: 13 h
[7]
  Cmax: 6400 nM
[8]
  AUClast: 111 µM·h
[9]
  solubility thermodynamic at 1 h: 152 µM (≈ 64.8 µg/mL)
[10]
  solubility thermodynamic at 1 h: 38 µM (≈ 16.2 µg/mL)
[11]
  solubility thermodynamic at 1 h: 33 µM (≈ 14.1 µg/mL)
[12]
  solubility thermodynamic at 1 h: 20600 µM (≈ 8790 µg/mL)
[13]
  Papp A→B at 1.5 h, 5 µM: 38 ×10⁻⁶ cm/s
[14]
  Papp B→A at 1.5 h, 5 µM: 31 ×10⁻⁶ cm/s
[15]
  IC50: > 10 µM
[16]
  IC50: > 10 µM
[17]
  IC50: > 10 µM
[18]
  CLint scaled at 1 µM: 12 mL/min/kg
[19]
  CLint scaled at 1 µM: 11 mL/min/kg
[20]
  CLint scaled at 2 µM: 2.5 mL/min/kg
[21]
  CLint scaled at 2 µM: 4.4 mL/min/kg
[22]
  CLint scaled at 2 µM: 9.2 mL/min/kg
[23]
  CLint scaled at 2 µM: 11 mL/min/kg
[24]
  fraction unbound at 5 h, 5 µM: 0.075
[25]
  fraction unbound at 5 h, 5 µM: 0.139
[26]
  fraction unbound at 5 h, 5 µM: 0.091
[27]
  fraction unbound at 5 h: 0.039
[28]
  half-life: 12 h
[29]
  bioavailability: 95%
[30]
  Vdss: 3.5 L/kg
[31]
  Cmax: 1200 nM
[32]
  AUC(0-t) at 24 h: 15.3 µM·h
[33]
  Cmax: 350 nM
[34]
  AUC(0-t) at 24 h: 4.7 µM·h
[35]
  Activity: Dose-Dependent Effect
[36]
  Activity: Non-Toxic
[37]
  Activity: Toxic
